Test results taken from patent EP4800014A1 (Tuojie Biotech (Shanghai) Co., Ltd., priority 2023, dated 2025).

Columns and labels:
[1] = test system: Ovarian cancer cells OVCAR3; assay: Inhibitory activity against ovarian cancer cells (OVCAR3), CellTiter-Glo cell viability; format: cell-based; conditions: for IC50: Homo sapiens, OVCAR-3, 120 h, OVCAR3 cells, 2500 cells/well, 5 days with compound, highest concentration 10 µM, Celltiter Glo; for inhibitory activity against OVCAR3 tumor cells compared with Janssen-01: comparison in words with the disclosed compound Janssen-01
Method: Test Example 1. Assay for Inhibitory Activity of Compounds of Present Disclosure Against Ovarian Cancer Cells (OVCAR3)
Ovarian cancer cells OVCAR3 (source: Nanjing Cobioer Biosciences Co., Ltd.) were cultured in an RPMI 1640 culture medium supplemented with 10% FBS in a cell incubator at 37 °C with 5% CO2. On day one, the cells were plated in a 96-well plate at a cell concentration of 2500 cells/well and cultured overnight in an incubator. On day two, the cells were treated with compounds. The highest compound concentration was 10 µM and was diluted 3-fold to obtain 9 concentrations, and the final concentration of DMSO was 0.1%. After the cells were cultured in the incubator for another 5 days, the cell viability was measured using a Celltiter Glo assay kit (Promega) by a method consistent with that provided by the kit. Data were processed using GraphPad Prism 8, and IC50 was calculated. [formula] X: the logarithm of the compound concentration; Y: % inhibition; Bottom: bottom; Top: top; HillSlope: Hill slope. Table 2. The IC50 (nM) of the compounds of the present disclosure against OVCAR3

[2] = target: CDK1/CyclinB (Homo sapiens, UniProt P06493); assay: ADP-Glo kinase assay, CDK1; format: biochemical; conditions: 16.5 nM CDK1/CyclinB, 20 µM ATP (Km), 0.1 mg/mL histone H1, 120 min; read-out: inhibitory activity (IC50, nM) CDK1
CDK1/CyclinB, sequence (P06493 whole entry, species assumed): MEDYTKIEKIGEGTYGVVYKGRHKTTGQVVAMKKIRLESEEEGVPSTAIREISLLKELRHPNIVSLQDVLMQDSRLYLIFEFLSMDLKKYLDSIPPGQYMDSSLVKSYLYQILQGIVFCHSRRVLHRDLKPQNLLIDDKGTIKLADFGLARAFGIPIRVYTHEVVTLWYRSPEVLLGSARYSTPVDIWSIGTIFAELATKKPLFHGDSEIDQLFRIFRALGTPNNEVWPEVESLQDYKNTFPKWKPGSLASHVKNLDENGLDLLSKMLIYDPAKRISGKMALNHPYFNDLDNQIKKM
CDK1/CyclinB, sequence (P14635 whole entry partner, species assumed): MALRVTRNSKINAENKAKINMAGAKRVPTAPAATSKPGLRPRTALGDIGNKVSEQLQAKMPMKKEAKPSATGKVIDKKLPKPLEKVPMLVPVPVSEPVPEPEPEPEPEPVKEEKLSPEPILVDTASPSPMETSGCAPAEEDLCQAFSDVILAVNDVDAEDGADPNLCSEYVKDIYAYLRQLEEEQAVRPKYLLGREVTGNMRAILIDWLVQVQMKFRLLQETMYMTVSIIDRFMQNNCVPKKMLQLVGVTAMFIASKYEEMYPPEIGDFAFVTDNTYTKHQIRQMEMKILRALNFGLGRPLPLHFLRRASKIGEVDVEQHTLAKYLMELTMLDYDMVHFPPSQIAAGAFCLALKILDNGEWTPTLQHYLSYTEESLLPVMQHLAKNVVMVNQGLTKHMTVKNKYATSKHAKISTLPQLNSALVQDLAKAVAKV
Method: (§1) An ADP-Glo kinase assay was used for testing the activity of CDKs. The compounds were diluted in 384-well plates using Echo. The starting concentration was 10 µM and was diluted 3-fold to obtain 10 concentration points, and each concentration was tested in duplicate. The final concentration of DMSO in the assay system was 1%. CDK solutions (final concentrations: 16.5 nM CDK1/CyclinB, 1 nM CDK2/CyclinE1, 16.3 nM CDK4/CyclinD1, 15.7 nM CDK6/CyclinD3, 80 nM CDK7/Cyclin H/MAT1, and 15.3 nM CDK9/Cyclin T1) prepared with assay buffer were added at 2.5 µL, and the enzymes and compounds were pre-incubated at room temperature for 10 min. […] After thorough mixing, the plates were incubated at room temperature (for 120 min for CDK1/4/9 and for 60 min for CDK2/6/7). 4 µL of the ADP-Glo reagent was added, and the plates were incubated at room temperature for 40 min. 8 µL of the kinase assay reagent was added, and the plates were incubated at room temperature for 40 min. Readings were taken using an Envision multimode microplate reader. Data were processed using GraphPad Prism 8, and IC50 was calculated. [formula] X: the logarithm of the compound concentration; Y: % inhibition; Bottom: bottom; Top: top; HillSlope: Hill slope. Table 3. The inhibitory activity (IC50, nM) of the compounds of the present disclosure against CDKs

[3] = target: CDK2/CyclinE1 (Homo sapiens, UniProt P24941); assay: ADP-Glo kinase assay, CDK2; format: biochemical; conditions: 1 nM CDK2/CyclinE1, 15 µM ATP (Km), 0.1 mg/mL histone H1, 60 min; read-out: inhibitory activity (IC50, nM) CDK2
Method: as §1

[4] = target: CDK4/CyclinD1 (Homo sapiens, UniProt P11802); assay: ADP-Glo kinase assay, CDK4; format: biochemical; conditions: 16.3 nM CDK4/CyclinD1, 200 µM ATP (Km), 0.2 mg/mL DYRKtide, 120 min; read-out: inhibitory activity (IC50, nM) CDK4
CDK4/CyclinD1, sequence (P11802 whole entry, species assumed): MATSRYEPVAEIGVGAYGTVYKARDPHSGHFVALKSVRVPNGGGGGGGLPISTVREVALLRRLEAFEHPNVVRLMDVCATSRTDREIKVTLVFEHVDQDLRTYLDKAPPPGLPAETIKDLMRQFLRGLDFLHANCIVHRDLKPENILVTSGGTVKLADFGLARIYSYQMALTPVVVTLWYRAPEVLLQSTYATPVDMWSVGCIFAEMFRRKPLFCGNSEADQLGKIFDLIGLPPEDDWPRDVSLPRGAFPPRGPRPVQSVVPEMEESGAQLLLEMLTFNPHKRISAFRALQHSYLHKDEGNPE
CDK4/CyclinD1, sequence (P24385 whole entry partner, species assumed): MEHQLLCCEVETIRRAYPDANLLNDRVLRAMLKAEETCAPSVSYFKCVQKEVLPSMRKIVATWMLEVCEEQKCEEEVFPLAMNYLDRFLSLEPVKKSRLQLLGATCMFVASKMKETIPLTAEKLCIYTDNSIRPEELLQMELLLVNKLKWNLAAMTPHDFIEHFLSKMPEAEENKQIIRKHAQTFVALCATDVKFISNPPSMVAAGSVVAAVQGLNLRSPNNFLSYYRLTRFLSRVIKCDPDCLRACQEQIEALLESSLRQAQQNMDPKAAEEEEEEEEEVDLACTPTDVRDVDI
Method: as §1

[5] = target: CDK6/CyclinD3 (Homo sapiens, UniProt Q00534); assay: ADP-Glo kinase assay, CDK6; format: biochemical; conditions: 15.7 nM CDK6/CyclinD3, 200 µM ATP (Km), 0.1 mg/mL histone H1, 60 min; read-out: inhibitory activity (IC50, nM) CDK 6
CDK6/CyclinD3, sequence (Q00534 whole entry, species assumed): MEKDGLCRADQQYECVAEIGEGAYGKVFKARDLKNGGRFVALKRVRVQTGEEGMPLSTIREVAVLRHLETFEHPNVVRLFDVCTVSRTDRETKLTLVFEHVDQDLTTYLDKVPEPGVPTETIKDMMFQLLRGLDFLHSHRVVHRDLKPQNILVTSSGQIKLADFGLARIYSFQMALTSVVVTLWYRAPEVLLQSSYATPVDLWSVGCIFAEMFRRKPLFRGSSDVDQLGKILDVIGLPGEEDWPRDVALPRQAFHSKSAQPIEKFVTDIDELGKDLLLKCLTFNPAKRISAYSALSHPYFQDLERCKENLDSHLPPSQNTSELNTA
CDK6/CyclinD3, sequence (P30281 whole entry partner, species assumed): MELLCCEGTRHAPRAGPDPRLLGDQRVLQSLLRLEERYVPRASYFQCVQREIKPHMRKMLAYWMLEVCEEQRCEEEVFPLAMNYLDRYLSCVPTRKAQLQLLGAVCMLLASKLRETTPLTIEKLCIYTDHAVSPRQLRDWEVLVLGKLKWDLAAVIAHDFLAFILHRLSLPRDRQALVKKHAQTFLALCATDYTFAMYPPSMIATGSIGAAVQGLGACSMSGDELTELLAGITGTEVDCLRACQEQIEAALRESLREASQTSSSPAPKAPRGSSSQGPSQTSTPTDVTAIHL
Method: as §1

[6] = target: CDK7/Cyclin H/MAT1 (Homo sapiens, UniProt P50613); assay: ADP-Glo kinase assay, CDK7; format: biochemical; conditions: 80 nM CDK7/Cyclin H/MAT1, 70 µM ATP (Km), 0.2 mg/mL MBP, 60 min; read-out: inhibitory activity (IC50, nM) CDK7
CDK7/Cyclin H/MAT1, sequence (P50613 whole entry, species assumed): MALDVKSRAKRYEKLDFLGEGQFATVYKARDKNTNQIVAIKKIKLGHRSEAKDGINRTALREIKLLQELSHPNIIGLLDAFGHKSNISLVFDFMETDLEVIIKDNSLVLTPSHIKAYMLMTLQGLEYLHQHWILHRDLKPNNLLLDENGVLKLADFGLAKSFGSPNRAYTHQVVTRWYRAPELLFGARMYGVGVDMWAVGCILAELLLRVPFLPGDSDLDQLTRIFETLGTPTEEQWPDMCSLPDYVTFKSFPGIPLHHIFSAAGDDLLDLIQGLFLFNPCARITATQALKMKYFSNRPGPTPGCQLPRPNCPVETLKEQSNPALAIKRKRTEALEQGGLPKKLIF
CDK7/Cyclin H/MAT1, sequence (P51946 whole entry partner, species assumed): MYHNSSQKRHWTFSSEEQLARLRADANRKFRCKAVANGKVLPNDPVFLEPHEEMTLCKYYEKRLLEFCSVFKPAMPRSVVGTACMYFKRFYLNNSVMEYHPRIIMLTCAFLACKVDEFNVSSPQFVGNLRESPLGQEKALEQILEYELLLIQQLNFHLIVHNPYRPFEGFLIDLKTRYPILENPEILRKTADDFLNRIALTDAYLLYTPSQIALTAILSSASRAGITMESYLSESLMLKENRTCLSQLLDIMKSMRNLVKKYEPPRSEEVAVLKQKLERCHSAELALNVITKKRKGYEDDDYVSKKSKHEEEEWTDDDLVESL
CDK7/Cyclin H/MAT1, sequence (P51948 whole entry partner, species assumed): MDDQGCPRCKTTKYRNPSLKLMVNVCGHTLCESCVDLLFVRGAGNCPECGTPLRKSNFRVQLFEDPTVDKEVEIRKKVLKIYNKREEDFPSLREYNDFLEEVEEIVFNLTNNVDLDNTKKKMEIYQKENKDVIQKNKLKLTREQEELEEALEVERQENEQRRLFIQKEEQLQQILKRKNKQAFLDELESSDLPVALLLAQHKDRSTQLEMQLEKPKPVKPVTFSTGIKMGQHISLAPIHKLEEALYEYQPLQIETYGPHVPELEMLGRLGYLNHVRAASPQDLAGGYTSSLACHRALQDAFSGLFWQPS
Method: as §1

[7] = target: CDK9/Cyclin T1 (Homo sapiens, UniProt P50750); assay: ADP-Glo kinase assay, CDK9; format: biochemical; conditions: 15.3 nM CDK9/Cyclin T1, 60 µM ATP (Km), 0.2 mg/mL PDKtide, 120 min; read-out: inhibitory activity (IC50, nM) CDK9
CDK9/Cyclin T1, sequence (P50750 whole entry, species assumed): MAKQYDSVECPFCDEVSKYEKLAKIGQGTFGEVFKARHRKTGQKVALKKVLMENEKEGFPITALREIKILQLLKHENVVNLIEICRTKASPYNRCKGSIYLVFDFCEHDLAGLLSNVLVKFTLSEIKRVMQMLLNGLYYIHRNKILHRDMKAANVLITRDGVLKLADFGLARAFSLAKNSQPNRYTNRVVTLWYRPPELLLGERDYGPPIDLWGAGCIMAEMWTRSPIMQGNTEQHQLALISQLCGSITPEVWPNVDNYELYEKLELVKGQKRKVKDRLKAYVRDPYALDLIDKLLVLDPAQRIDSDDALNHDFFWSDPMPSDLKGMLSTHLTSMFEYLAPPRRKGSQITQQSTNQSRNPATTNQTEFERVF
CDK9/Cyclin T1, sequence (O60563 whole entry partner, species assumed): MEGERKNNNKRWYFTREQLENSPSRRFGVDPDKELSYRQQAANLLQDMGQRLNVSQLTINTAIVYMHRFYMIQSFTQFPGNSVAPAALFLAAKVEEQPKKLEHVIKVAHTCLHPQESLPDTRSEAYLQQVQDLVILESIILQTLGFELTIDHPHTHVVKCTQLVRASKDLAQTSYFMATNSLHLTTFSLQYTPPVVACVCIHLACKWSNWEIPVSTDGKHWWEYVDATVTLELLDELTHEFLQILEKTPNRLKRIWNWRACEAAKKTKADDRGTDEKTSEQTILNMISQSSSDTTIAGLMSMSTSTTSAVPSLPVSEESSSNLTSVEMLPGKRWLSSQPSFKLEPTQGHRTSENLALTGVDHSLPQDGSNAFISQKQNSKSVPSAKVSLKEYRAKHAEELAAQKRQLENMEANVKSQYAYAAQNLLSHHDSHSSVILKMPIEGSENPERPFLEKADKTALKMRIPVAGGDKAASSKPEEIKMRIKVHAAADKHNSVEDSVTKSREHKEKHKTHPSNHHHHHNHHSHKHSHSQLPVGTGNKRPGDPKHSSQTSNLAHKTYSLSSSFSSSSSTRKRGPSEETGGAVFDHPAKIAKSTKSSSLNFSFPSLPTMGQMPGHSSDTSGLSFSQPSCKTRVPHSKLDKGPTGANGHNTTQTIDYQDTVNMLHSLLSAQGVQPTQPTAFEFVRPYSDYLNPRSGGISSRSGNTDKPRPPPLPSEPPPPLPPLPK
Method: as §1

Row | IC50 [1] [nM] | SMILES | inhibitory activity against OVCAR3 tumor cells compared with Janssen-01 [1] | other results
1 | 10.2 | Cc1csc(CNc2ncc3c(n2)CN(C(=O)N[C@H](CN(C)C)c2ccccc2)[C@H](C)C3)n1 [Compound 1] |  | 
2 | < 1.5 | Cc1csc([C@H](C)Nc2ncc3c(n2)CN(C(=O)N[C@H](CN(C)C)c2ccccc2)[C@H](C)C3)n1 [Compound 2-1, (R)-N-((S)-2-(Dimethylamino)-1-phenylethyl)-6-methyl-2-(((S)-1-(4-methylthiazol-2-yl)ethyl)amino)-5,8-dihydropyrido[3,4-d]pyrimidine-7(6H)-carboxamide] | significantly better than that of the disclosed compound Janssen-01 | IC50 [2]: > 1000 nM; IC50 [3]: 711 nM; IC50 [4]: > 1000 nM; IC50 [5]: > 1000 nM; IC50 [6]: 0.96 nM; IC50 [7]: > 1000 nM
3 | 1.89 | C[C@H](Nc1ncc2c(n1)CN(C(=O)N[C@H](CN(C)C)c1ccccc1)[C@H](C)C2)c1nc(CO)cs1 [Compound 11-1, (R)-N-((S)-2-(Dimethylamino)-1-phenylethyl)-2-(((S)-1-(4-(hydroxymethyl)thiazol-2-yl)ethyl)amino)-6-methyl-5,8-dihydropyrido[3,4-d]pyrimidine-7(6H)-carboxamide] | significantly better than that of the disclosed compound Janssen-01 | 
4 | 10.7 | C[C@@H]1Cc2cnc(NCc3nc(C4CC4)cs3)nc2CN1C(=O)N[C@H](CN(C)C)c1ccccc1 [Compound 6, (R)-2-(((4-Cyclopropylthiazol-2-yl)methyl)amino)-N-((S)-2-(dimethylamino)-1-phenylethyl)-6-methyl-5,8-dihydropyrido[3,4-d]pyrimidine-7(6H)-carboxamide] |  | 
5 | < 1.5 | [2H]C([2H])([2H])N(C[C@@H](NC(=O)N1Cc2nc(N[C@@H](C)c3nc(C)cs3)ncc2C[C@H]1C)c1ccccc1)C([2H])([2H])[2H] [Compound 3-1, (R)-N-((S)-2-(Bis(methyl-d3)amino)-1-phenylethyl)-6-methyl-2-(((S)-1-(4-methylthiazo 1-2-yl)ethyl)amino)-5,8-dihydropyrido[3,4-d]pyrimidine-7(6H)-carboxamide] | significantly better than that of the disclosed compound Janssen-01 | 
6 | 190 | C[C@@H]1Cc2cnc(N[C@H](C)c3nc(CO)cs3)nc2CN1C(=O)N[C@H](CN(C)C)c1ccccc1 [Compound 11-2, (R)-N-((S)-2-(Dimethylamino)-1-phenylethyl)-2-(((R)-1-(4-(hydroxymethyl)thiazol-2-yl)ethyl)amino)-6-methyl-5,8-dihydropyrido[3,4-d]pyrimidine-7(6H)-carboxamide] |  | 
7 | < 1.5 | [2H]C([2H])([2H])N(C[C@@H](NC(=O)N1Cc2nc(N[C@@H](C)c3nc(C4CC4)cs3)ncc2C[C@H]1C)c1ccccc1)C([2H])([2H])[2H] [Compound 9, (R)-2-(((S)-1-(4-Cyclopropylthiazol-2-yl)ethyl)amino)-N-((S)-2-(bis(methyl-d3)amino)-1-phenylethyl)-6-methyl-5,8-dihydropyrido[3,4-d]pyrimidine-7(6H)-carboxamide] | significantly better than that of the disclosed compound Janssen-01 | 
8 | 66 | Cc1csc([C@@H](C)Nc2ncc3c(n2)CN(C(=O)N[C@H](CN(C)C)c2ccccc2)[C@H](C)C3)n1 [Compound 2-2, (R)-N-((S)-2-(Dimethylamino)-1-phenylethyl)-6-methyl-2-(((R)-1-(4-methylthiazol-2-yl)ethyl)amino)-5,8-dihydropyrido[3,4-d]pyrimidine-7(6H)-carboxamide] |  | 
9 | 9.89 | [2H]C([2H])([2H])N(C[C@@H](NC(=O)N1Cc2nc(NCc3nc(C4CC4)cs3)ncc2C[C@H]1C)c1ccccc1)C([2H])([2H])[2H] [Compound 8, (R)-2-(((4-Cyclopropylthiazol-2-yl)methyl)amino)-N-((S)-2-(bis(methyl-d3)amino)-1-phenylethyl)-6-methyl-5,8-dihydropyrido[3,4-d]pyrimidine-7(6H)-carboxamide] |  | 
10 | 101 | [2H]C([2H])([2H])N(C[C@@H](NC(=O)N1Cc2nc(N[C@H](C)c3nc(C)cs3)ncc2C[C@H]1C)c1ccccc1)C([2H])([2H])[2H] [Compound 3-2, (R)-N-((S)-2-(Bis(methyl-d3)amino)-1-phenylethyl)-6-methyl-2-(((R)-1-(4-methylthiazo 1-2-yl)ethyl)amino)-5,8-dihydropyrido[3,4-d]pyrimidine-7(6H)-carboxamide] |  | 
11 | 22.2 | C[C@@H]1Cc2cnc(NCc3ccn(C)n3)nc2CN1C(=O)[C@H]1CCN(C)C[C@@H]1c1ccccc1 [Janssen-01, reference compound] |  | 
12 | < 1.5 | C[C@H](Nc1ncc2c(n1)CN(C(=O)N[C@H](CN(C)C)c1ccccc1)[C@H](C)C2)c1nc(C2CC2)cs1 [Compound 4, (R)-2-(((S)-1-(4-Cyclopropylthiazol-2-yl)ethyl)amino)-N-((S)-2-(dimethylamino)-1-phenylethyl)-6-methyl-5,8-dihydropyrido[3,4-d]pyrimidine-7(6H)-carboxamide] | significantly better than that of the disclosed compound Janssen-01 | IC50 [2]: > 1000 nM; IC50 [3]: 571 nM; IC50 [4]: > 1000 nM; IC50 [5]: > 1000 nM; IC50 [6]: 0.55 nM; IC50 [7]: > 1000 nM
13 | 19.3 | [2H]C([2H])([2H])N(C[C@@H](NC(=O)N1Cc2nc(N[C@H](C)c3nc(C4CC4)cs3)ncc2C[C@H]1C)c1ccccc1)C([2H])([2H])[2H] [Compound 10, (R)-2-(((R)-1-(4-Cyclopropylthiazol-2-yl)ethyl)amino)-N-((S)-2-(bis(methyl-d3)amino)-1-phenylethyl)-6-methyl-5,8-dihydropyrido[3,4-d]pyrimidine-7(6H)-carboxamide] |  | 
14 | 3.98 | Cc1csc(C(C)Nc2ncc3c(n2)CN(C(=O)N[C@H](CN(C)C)c2ccccc2)[C@H](C)C3)n1 (stereo partly drawn) [Compound 2] |  | 
15 | 11.2 | [2H]C([2H])([2H])N(C[C@@H](NC(=O)N1Cc2nc(NCc3nc(C)cs3)ncc2C[C@H]1C)c1ccccc1)C([2H])([2H])[2H] [Compound 7] |  | 
16 | 17.5 | C[C@@H]1Cc2cnc(N[C@H](C)c3nc(C4CC4)cs3)nc2CN1C(=O)N[C@H](CN(C)C)c1ccccc1 [Compound 5, (R)-2-(((R)-1-(4-Cyclopropylthiazol-2-yl)ethyl)amino)-N-((S)-2-(dimethylamino)-1-phenylethyl)-6-methyl-5,8-dihydropyrido[3,4-d]pyrimidine-7(6H)-carboxamide] |  | 
